Reference: US20160235807A1, “AGONISTS OF GUANYLATE CYCLASE USEFUL FOR DOWNREGULATION OF PRO-INFLAMMATORY CYTOKINES” (SYNERGY PHARMACEUTICALS, INC., priority 2013, published 2016)
Entries after “also recorded” stand apart in the source; their conditions may differ. Bridge positions count the residues as written; N and C are the ends. Square brackets hold non-standard residues; d marks the D form. Peptide text beside a SMILES is read from it.

What was measured:
T84 cells = assay: MicroRNA microarray analysis of SP-333 treated T84 cells; format: cell-based, human; conditions: T84, 1 μM, 5 h
Experimental: T84 cells were grown to confluence in 100 mm tissue culture dishes. Cells were treated with pre-determined concentration of SP-333 (1 μM) in the presence of phosphodiesterase inhibitor, zaprinast (500 μM; Sigma Aldrich) for 5 hours. Following treatment, cells were trypsinized and the sample was divided into 3 aliquots. One aliquot was used to determine total cGMP. Another was used for extracting total RNA. The last aliquot was used to extract and purify miRNAs using Norgen's Kit (Norgen BioteK). Briefly, cells were lysed using lysis buffer, passed through a column to remove large RNA, followed by capturing miRNA using microRNA enrichment column. Purified samples were stored at −20° C. MicroRNAs were profiled on a LC Sciences microarray chip and TaqMan Open Array Human miRNA panel.

NF-κB = assay: Inhibition of NF-κB signaling in LPS-stimulated T84 cells, Western blot; format: cell-based, human
Experimental: Approximately 1.5×10^6 T84 cells were seeded into 100 mm dishes and cultured essentially as described (Shailubhai et al. 2000). At 85-90% confluence, cells were washed and treated with 10 μg/ml lipopolysaccharides (LPS) from Escherichia coli (Sigma-Aldrich, St. Louis, Mo.) for 4 h. Subsequent to LPS treatment, cells were washed and replenished with fresh media containing 8-Bromo-cyclic GMP (8-Br-cGMP) at 0, 0.1, 1, 10, 100 and 1000 μM (Enzo Life Science, Farmingdale, N.Y.), or SP-333 at 0, 0.01, 0.1, 1 and 10 μM together with 500 μM of phosphodiesterase inhibitor Zaprinast (Sigma-Aldrich, St. Louis, Mo.) for 16 h before harvest. For analyzing phosphorylation status of IKK-α/β, T84 cells were stimulated with LPS (10 μg/ml) for 4 h followed by treatment with 0.1 and 1.0 μM of SP-333 in the presence of 500 μM Zaprinast, for 2 h. The control cells (without LPS treatment) were washed and refilled with fresh media and harvested simultaneously with treated cells. Nuclear and cytosolic extracts were prepared by the previously described method (Aiamkitsumrit et al. 2007). Protein concentration was measured with a Bio-Rad protein assay kit (Bio-Rad, Hercules, Calif.). The extracts were stored at −80° C. until use.
T84 cells at 85-90% confluence were washed and treated with 10 μg/ml Escherichia coli LPS (Sigma-Aldrich, St. Louis, Mo.) for 4 h.
Western Blot analysis: This was performed essentially as described^21 employing either 50 μg of cytoplasmic or 25 μg proteins of the nuclear fractions. The blots were probed overnight with primary antibodies of interest (anti-p65 antibody, 1:200 dilution; anti-IκB antibody 1:500 dilution; anti-phosphorylated p65 antibody, 1:250 dilution; anti-phosphorylated IκB antibody 1:250 dilution; all were from Santa Cruz Biotechnology (Santa Cruz, Calif.). Anti-IKK-β and phosphorylated IKK-α/β (Ser 176/180) were purchased from Cell Signaling Technology, Boston, Mass. and used at 1:500 dilution; anti-mouse or anti-rabbit antibodies conjugated to […] were used for chemiluminescence detection as recommended by manufacturer (GE Healthcare, Piscataway, N.J.).

GC-C Receptor = target: T1, GC-C Receptor (Homo sapiens, UniProt P25092); assay: cGMP stimulation assay in T84 cells in the presence of zaprinast (Example 2); format: cell-based
T1 construct: endogenous in cells; host or cells: T84 human colon carcinoma cells
T1 sequence (P25092 24-1073): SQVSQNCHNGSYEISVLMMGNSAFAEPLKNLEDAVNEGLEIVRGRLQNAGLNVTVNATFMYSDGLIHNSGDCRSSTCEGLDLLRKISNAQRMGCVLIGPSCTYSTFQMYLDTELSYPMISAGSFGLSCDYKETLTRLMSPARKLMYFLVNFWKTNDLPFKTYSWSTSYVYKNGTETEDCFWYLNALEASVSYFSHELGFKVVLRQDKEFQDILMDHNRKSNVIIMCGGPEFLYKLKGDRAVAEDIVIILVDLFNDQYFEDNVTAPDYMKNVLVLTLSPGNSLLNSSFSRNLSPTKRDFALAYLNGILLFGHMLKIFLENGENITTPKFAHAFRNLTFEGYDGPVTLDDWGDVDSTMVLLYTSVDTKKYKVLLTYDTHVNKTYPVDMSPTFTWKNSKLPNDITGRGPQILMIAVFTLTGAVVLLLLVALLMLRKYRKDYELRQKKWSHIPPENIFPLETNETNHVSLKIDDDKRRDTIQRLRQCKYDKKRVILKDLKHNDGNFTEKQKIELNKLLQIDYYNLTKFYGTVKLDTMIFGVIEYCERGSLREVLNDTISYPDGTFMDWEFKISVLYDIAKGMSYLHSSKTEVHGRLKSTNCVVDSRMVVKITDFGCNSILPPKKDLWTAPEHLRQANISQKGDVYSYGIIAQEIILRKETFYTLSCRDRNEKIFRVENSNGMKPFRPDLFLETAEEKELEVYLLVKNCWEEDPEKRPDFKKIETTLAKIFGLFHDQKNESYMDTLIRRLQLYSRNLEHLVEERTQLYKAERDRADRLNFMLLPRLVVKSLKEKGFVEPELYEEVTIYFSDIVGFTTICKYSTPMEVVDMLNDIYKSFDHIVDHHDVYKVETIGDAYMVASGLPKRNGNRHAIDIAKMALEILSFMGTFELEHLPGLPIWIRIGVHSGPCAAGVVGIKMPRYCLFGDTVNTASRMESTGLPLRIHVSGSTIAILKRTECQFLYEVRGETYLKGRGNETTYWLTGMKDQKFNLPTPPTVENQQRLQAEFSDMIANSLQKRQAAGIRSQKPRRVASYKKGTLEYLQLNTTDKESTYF
Experimental: Confluent monolayers of T84 cells in 24-well plates were pre-incubated with indicated amounts of SP-333 in the presence of zaprinast for 30 minutes at 37° C. Subsequently, the reaction was terminated by 3% perchloric acid and neutralized with 0.5N NaOH. Intracellular cGMP levels were determined in lysates using a ELISA kit (Cayman Chemical). All samples were analyzed in duplicates. Total protein was quantitated using Pierce BCA protein assay (Thermo Fisher Scientific).

[1] = format: in vitro ADME
Experimental: The potency of test peptides to stimulate cGMP synthesis in T84 cells was assayed by a published procedure (Shailubhai et al. 2000). Briefly, confluent monolayers of T-84 cells in 24-well plates were washed twice with 250 μl of DMEM containing 50 mM HEPES (pH 7.4), pre-incubated at 37° C. for 10 min with 250 μl of DMEM containing 50 mM HEPES (pH 7.4) and 1 mM isobutylmethylxanthine (IBMX), followed by incubation with test peptide for 30 min. The medium was aspirated, and the reaction was terminated by the addition of 3% perchloric acid. Following centrifugation, and neutralization with 0.1 N NaOH, the resulting supernatant was used directly for measurements of intracellular cGMP using an ELISA kit (Caymen Chemical, Ann Arbor, Mich.). Results are expressed as pmol of cGMP/mg of protein in the cell extracts.
Plecanatide and SP-333 were incubated in simulated intestinal fluid (SIF) for 6-24 h. Inactivated SIF was used as a control. Following the treatment, samples were analyzed by HPLC by cGMP production in T84 cells. […] The active metabolite, SP-338 was characterized by MS and MS/MS and identified to be formed via removal of carboxyl terminal leucine possibly due to cleavage by carboxypeptidases.

[2] = Table 8: downregulated under NF-κB
[3] = Table 8: upregulated under NF-κB

**Q.** Which results are given for `CC(C)C[C@@H]1NC(=O)[C@H](CCC(=O)O)NC(=O)[C@@H](NC(=O)[C@H](CCC(=O)O)NC(=O)[C@H](CC(=O)O)NC(=O)[C@H](N)CC(N)=O)CSSC[C@@H]2NC(=O)[C@H](C)NC(=O)[C@H](C(C)C)NC(=O)[C@H](CC(N)=O)NC(=O)[C@H](C(C)C)NC(=O)[C@H](CSSC[C@@H](C(=O)N[C@H](CC(C)C)C(=O)O)NC(=O)CNC(=O)[C@H]([C@@H](C)O)NC2=O)NC1=O` [SP-333, dAsn^1-Asp^2-Glu^3-Cys^4-Glu^5-Leu^6-Cys^7-Val^8-Asn^9-Val^10-Ala^11-Cys^12-Thr^13-Gly^14-Cys^15-dLeu^16] (H-[dN]DECELCVNVACTGC[dL]-OH; disulfide 4-12, 7-15; N-terminus and C-terminus assumed)?
**A.** miR-133b level (T84 cells; Table 8: downregulated in CRC): increase; miR-139-5p level (T84 cells; Table 8: downregulated in CRC): increase; miR-133a level (T84 cells; Table 8: downregulated in CRC, p<0.01): increase; miR-218 level (T84 cells; [2]): increase; miR-223 level (T84 cells; [2]): increase; mir-29b level (T84 cells; [2]): increase; miR-16 level (T84 cells; Table 8: downregulated under NF-κB, p<0.01): upregulated; also recorded: increase; miR-15a level (T84 cells; Table 8: downregulated under NF-κB, p<0.05): upregulated; also recorded: increase; miR-92 level (T84 cells; Table 8: upregulated in CRC): decrease; miR-26b level (T84 cells; Table 8: upregulated in IBD): decrease; miR-28-5p level (T84 cells; Table 8: upregulated in IBD): decrease; miR-98 level (T84 cells; Table 8: upregulated in IBD): decrease; miR-99a level (T84 cells; Table 8: upregulated in IBD): decrease; miR-203 level (T84 cells; Table 8: upregulated in IBD): decrease; miR-362-3p level (T84 cells; Table 8: upregulated in IBD): decrease; miR-532-3p level (T84 cells; Table 8: upregulated in IBD): decrease; miR-10a level (T84 cells; [3]): decrease; miR-27b level (T84 cells; [3]): decrease; miR-30b level (T84 cells; [3]): decrease; miR-301 level (T84 cells; [3]): decrease; miR-199-3p level (T84 cells; Table 8: upregulated under NF-κB and cMyc): decrease; miR-224 level (T84 cells; Table 8: upregulated under cMyc): decrease; miR-125b level (T84 cells; p<0.001): upregulated; let-7i level (T84 cells; p<0.005): upregulated; miR-494 level (T84 cells; p<0.005): reduced; miR-41-3p level (negative regulator of c-Src) (T84 cells; p<0.01): significantly increased; miR-200c level (T84 cells; p<0.01): reduced; family of miR-29 level (T84 cells; p<0.05): upregulated; miR-30c level (T84 cells; p<0.05): increased; miR-92a level (T84 cells; p<0.05): reduced; levels of phospho-p65 (NF-κB; LPS 10 μg/ml 4 h, then SP-333 (1.0 and 10 μM) 16 h, zaprinast 500 μM): reduced levels of phospho-p65 in a dose-dependent manner; levels of IκBα (NF-κB; LPS-activated T84 cells): increase; levels of phospho-IκBα (NF-κB; LPS-activated T84 cells): reduced; level of total IKKβ (NF-κB; LPS-activated T84 cells, FIG. 3C): remained unchanged; LPS-mediated increase in phosphorylation of IKKβ (NF-κB; SP-333 1 μM, 2 h after LPS 4 h): completely reversed; LPS induced activation of NF-κB (NF-κB; T84 cells): inhibited; concentration at which cGMP synthesis approached a plateau (GC-C Receptor; FIG. 14): 1 µM; cGMP production (GC-C Receptor; FIG. 15): enhanced; biological activity lost [1]: ~20%; biological activity retained [1]: retains most of its biological activity
